From patent publication US6083969A, “1,3- and 2,3-diarylcycloalkano and cycloalkeno pyrazoles as selective inhibitors of cyclooxygenase-2 and antiinflammatory agents” (Ortho-McNeil Pharaceutical, Inc., priority 1999, dated 2000)

Assays:
[1] = target: T1, human prostaglandin H2 synthase type II (COX-2) (Homo sapiens, UniProt P35354); assay: Human prostaglandin H2 synthase type II (COX-2) whole cell assay (ECV-304 cells, PGE2 by radioimmunoassay); assay type: cell-based; design: endogenous in cells; host or cells: ECV-304; conditions: for inhibition at 10 µM / inhibition at 3 µM: read-out: P1: COX 2 Whole Cell % Inhibition; for IC50: read-out: P2: COX 2 Whole Cell IC50; for inhibition at 3 µM: @3 μM (superscript a)
T1 sequence (P35354 18-604): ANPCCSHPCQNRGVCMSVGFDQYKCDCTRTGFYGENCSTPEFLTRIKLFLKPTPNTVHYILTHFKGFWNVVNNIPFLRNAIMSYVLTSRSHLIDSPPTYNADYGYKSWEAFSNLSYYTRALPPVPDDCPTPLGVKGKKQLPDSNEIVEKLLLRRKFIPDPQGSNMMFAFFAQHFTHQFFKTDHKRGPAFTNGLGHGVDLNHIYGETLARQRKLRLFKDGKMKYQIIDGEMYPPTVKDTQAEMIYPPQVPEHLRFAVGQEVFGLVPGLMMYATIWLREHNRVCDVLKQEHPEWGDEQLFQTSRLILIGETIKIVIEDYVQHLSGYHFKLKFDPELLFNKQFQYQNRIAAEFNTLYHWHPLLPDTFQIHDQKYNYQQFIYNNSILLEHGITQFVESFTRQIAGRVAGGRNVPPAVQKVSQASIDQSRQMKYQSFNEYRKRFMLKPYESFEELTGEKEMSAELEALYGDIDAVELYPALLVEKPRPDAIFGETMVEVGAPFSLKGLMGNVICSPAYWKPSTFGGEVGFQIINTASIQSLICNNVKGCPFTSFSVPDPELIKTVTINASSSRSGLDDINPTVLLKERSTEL
Protocol: HUMAN PROSTAGLANDIN H2 SYNTHASE TYPE II (COX-2) WHOLE CELL ASSAY (MULTIPLE CONCENTRATIONS)
Procedures 1 and 2 were used to determine the ability of the compounds to inhibit human prostaglandin H2 synthase type II (COX-2) in a whole cell assay at multiple concentrations as follows:
Approximately 28 h later, […] PMA and […] ionomycin (both final concentrations) are added to each well and incubated for an additional 16 h. Vehicle or test compounds in the amount of […] are incubated with the cells for five minutes prior to initiation of COX-2 enzyme activity by the addition of 30 μM arachidonic acid. Ten minutes later, an aliquot of the supernatant is withdrawn and the amount of PGE2 present quantitated by radioimmunoassay. Activity, reported as percent inhibition of PGE2 produced, is calculated as follows: [formula]

COX-1 = target: T2, COX-1 (Homo sapiens, UniProt P23219); assay: Human platelet thromboxane B2 production (via COX-1); assay type: cell-based; conditions: human platelets, TXB2 production; read-out: P5: COX 1 Human Platelet IC50
T2 construct: Remove the platelet-rich plasma (PRP) and dilute the PRP 1:20 with 0.9% NaCl; endogenous in cells; host or cells: human platelets (platelet-rich plasma of one volunteer)
T2 sequence (P23219 24-599): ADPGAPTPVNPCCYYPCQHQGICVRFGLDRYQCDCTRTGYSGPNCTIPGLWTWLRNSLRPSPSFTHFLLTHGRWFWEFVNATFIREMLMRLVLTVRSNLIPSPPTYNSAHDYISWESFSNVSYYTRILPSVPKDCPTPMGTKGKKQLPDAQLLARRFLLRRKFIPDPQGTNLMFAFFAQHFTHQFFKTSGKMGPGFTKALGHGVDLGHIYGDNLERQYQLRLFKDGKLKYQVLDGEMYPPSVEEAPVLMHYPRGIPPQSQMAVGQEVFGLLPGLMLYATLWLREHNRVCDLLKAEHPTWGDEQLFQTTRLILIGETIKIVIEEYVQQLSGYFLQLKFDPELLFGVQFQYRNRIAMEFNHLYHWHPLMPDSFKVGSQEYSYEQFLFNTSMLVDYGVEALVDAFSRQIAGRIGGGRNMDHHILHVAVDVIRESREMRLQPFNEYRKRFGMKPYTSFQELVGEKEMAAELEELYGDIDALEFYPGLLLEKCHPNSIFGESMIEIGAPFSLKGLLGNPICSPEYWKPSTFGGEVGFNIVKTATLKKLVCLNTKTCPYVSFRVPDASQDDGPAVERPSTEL
Protocol: HUMAN […] THROMBOXANE B2 PRODUCTION (via COX-1)
Procedure 5 was used to determine thromboxane B2 (TXB2) production (via COX-1) in human platelets as follows:
Draw blood from one volunteer into heparinized tubes then spin at RT for 15 to 20 minutes at 1,000 RPM. Remove the platelet-rich plasma (PRP) and dilute the PRP 1:20 with 0.9% NaCl containing 14.4U heparin/mL. Add 180 μL of the diluted PRP to each well of a 96-well plate and incubate at 37° C. for 5 minutes. Then add 20 μL vehicle (HBSS with 1% DMSO) or drug and incubate for 15 minutes at 37° C. Add 10 μl calcium ionophore and incubate 15 minutes at 37° C. Stop the reaction on slush ice for 5 minutes and assay supernatants immediately for TXB2 production via RIA or EIA.
Prepare all drugs at 10 mM in DMSO by diluting the drug in HBSS at a 1.100 ratio with 1% DMSO to 100 μM. Add 20 μl to PRP (1:10 ratio) to obtain 10 μM final concentration. The calcium ionophore is prepared by using 7 mg/mL free acid calcium ionophore in DMSO, which is warmed until the ionophore goes into solution. Just prior to use, dilute the solution 1:25 with HBSS.

[2] = target: T3, human prostaglandin H2 synthase type I (COX-1) (Homo sapiens, UniProt P23219); assay: Human prostaglandin H2 synthase type I (COX-1) homogenate assay (transfected COS-7 cells, PGE2 formation); assay type: biochemical; conditions: @10 μM; COS-7 homogenate; read-out: P6: COX 1 Homogenized Cell % Inhibition
T3 construct: expressed in transfected cells; host or cells: COS-7 (African Green Monkey Kidney)
T3 sequence (P23219 24-599): as above
Protocol: HUMAN PROSTAGLANDIN H2 SYNTHASE--TYPE I (COX-1) HOMOGENATE ASSAY (SINGLE CONCENTRATION)
Procedures 6 and 7 were used to assess COX-1 activity in a homogenized cell assay as follows:
(§1) COS-7 (African Green Monkey Kidney) cells are maintained in a suitable medium, and are trypsinized and plated at a density of 1×10^6 cells/well of a 6 well plate prior to assay. Approximately 24 hours later, cells are transiently transfected with a plasmid containing the human COX-1 gene using the lipofectamine method. Two days later, the cell-free homogenate is prepared by subjecting the cells to a polytron followed by centrifugation at 9,000×g. COX activity, initiated by the addition of […] arachidonic acid to the 9,000×g supernatant, is monitored in the presence of vehicle or drug. Product (PGE2) formation is quantitated by radioimmunoassay. Activity, reported as percent inhibition of PGE2 produced, is calculated as follows: [formula]

[3] = target: T1, human prostaglandin H2 synthase type II (COX-2); assay: Human prostaglandin H2 synthase type II (hCOX-2) homogenate assay (transfected COS-7 cells, PGE2 formation); assay type: biochemical; design: expressed in transfected cells; host or cells: COS-7 (African Green Monkey Kidney); conditions: COS-7 homogenate; read-out: P4: COX 2 Homogenized Cell IC50
Protocol: HUMAN PROSTAGLANDIN H2 SYNTHASE TYPE II (hCOX-2) HOMOGENATE ASSAY (SINGLE CONCENTRATION)
Procedures 3 and 4 were used to assess COX-2 activity in a homogenized cell assay as follows:
as §1, with “COX-2” for “COX-1”

IC50 (COX-1)	IC50 [1]	SMILES	other results
–	–	Clc1ccc(-c2nn(-c3ccc(Cl)cc3)c3c2CCC3)cc1 [Example 2, 1,3-Di-(4-Chlorophenyl)-cyclopenta-[1,2-d]-pyrazole]	inhibition at 10 µM [1]: 0%
10 µM	2.59 µM	Clc1ccc(-c2nn(-c3ccccc3)c3c2CCC3)cc1 [Example 3-1]	–
> 10 µM	> 10 µM	CS(=O)(=O)c1ccc(-n2nc(-c3ccc(Cl)cc3)c3c2C=CCC3)cc1 [Example 4a, 3-(4-Chlorophenyl)-4,5-dihydro-1-(4-methylsulfonylphenyl)-1H-indazole]	inhibition at 10 µM [2]: 32%; inhibition at 10 µM [1]: 0%
> 10 µM	2.33 µM	CS(=O)(=O)c1ccc(-n2nc3c(c2-c2ccc(Cl)cc2)CCC=C3)cc1 [Example 4b]	–
–	4.75 µM	CS(=O)(=O)c1ccc(-n2nc3c(c2-c2ccc(F)cc2)CCC=C3)cc1 [Example 5b]	–
0.49 µM	0.57 µM	c1ccc(-c2nn(-c3ccccc3)c3c2CCCC3)cc1 [Example 6, 1,3-Diphenyl-cyclohexa-[1,2-d]-pyrazole]	–
> 10 µM	0.57 µM	Clc1ccc(-c2c3c(nn2-c2ccccc2)CCCC3)cc1 [Example 6-1a, 3-(4-Chlorophenyl)-4,5,6,7-tetrahydro-2-phenyl-2H-indazole]	–
10 µM	0.62 µM	Clc1ccc(-c2nn(-c3ccccc3)c3c2CCCC3)cc1 [Example 6-1b, 3-(4-Chlorophenyl)-4,5,6,7-tetrahydro-1-phenyl-1H-indazole]	–
0.12 µM	0.17 µM	c1ccc(-c2nn(-c3ccccc3)c3c2CCCCC3)cc1 [Example 7, 1,3-Diphenyl-4,5,6,7,8,-[5H]cycloheptano-[1,2-d]-pyrazole]	–
1 µM	0.14 µM	Clc1ccc(-c2nn(-c3ccccc3)c3c2CCCCC3)cc1 [Example 12, 3-(4-Chlorophenyl)-1-phenyl-cycloheptano-[1,2-d]-pyrazole]	inhibition at 10 µM [2]: 93%
–	10 µM	Clc1ccc(-c2nn(-c3ccc(Cl)cc3)c3c2CCCCC3)cc1 [Example 13, 3-(4-Chlorophenyl)-1-(4-chlorophenyl)-cycloheptano-[1,2-d]-pyrazole]	inhibition at 10 µM [1]: 3%
> 10 µM	> 10 µM	Fc1ccc(-n2nc(-c3ccc(Cl)cc3)c3c2CCCCC3)cc1 [Example 13-1b, 3-(4-Chlorophenyl)-1-(4-fluorophenyl)-cycloheptano-[1,2-d]-pyrazole]	inhibition at 10 µM [1]: 59%
> 10 µM	19.5 µM	COc1ccc(-n2nc3c(c2-c2ccc(Cl)cc2)CCCCC3)cc1 [Example 13-1c]	–
> 10 µM	9.41 µM	CS(=O)(=O)c1ccc(-n2nc3c(c2-c2ccc(Cl)cc2)CCCCC3)cc1 [Example 13-1d]	IC50 [3]: 1.5 µM
10 µM	1.22 µM	Cc1ccc(-n2nc3c(c2-c2ccc(Cl)cc2)CCCCC3)cc1 [Example 13-1e]	–
5.5 µM	1.38 µM	Clc1ccc(-c2c3c(nn2-c2ccccc2)CCCCC3)cc1 [Example 13-1f]	–
–	3.64 µM	COc1ccc(-n2nc3c(c2-c2ccc(F)cc2)CCCCC3)cc1 [Example 13-1g]	IC50 [3]: 8.1 µM

IC50 (COX-1)	IC50 [1]	SMILES	other results
–	10 µM	CS(=O)(=O)c1ccc(-n2nc3c(c2-c2ccc(F)cc2)CCCCC3)cc1 [Example 13-1h]	–
10 µM	1.24 µM	COc1ccc(-c2nn(-c3ccccc3)c3c2CCCCC3)cc1 [Example 13-2b, 3-(4-Methoxy)-1-phenyl-cycloheptano-[1,2-d]-pyrazole]	–
–	> 10 µM	CS(=O)(=O)c1ccc(-n2nc3c(c2-c2ccc(F)cc2)CC2(CC3)OCCO2)cc1 [Example 30b]	IC50 [3]: 21.7 µM
–	> 10 µM	COc1ccc(-n2nc3c(c2-c2ccc(F)cc2)CC2(CC3)OCCO2)cc1 [Example 30c]	IC50 [3]: 20.3 µM
> 10 µM	0.82 µM	CS(=O)(=O)c1ccc(-n2nc3c(c2-c2ccc(Cl)cc2)CCCC3)cc1 [Example 30d]	–
–	–	CS(=O)(=O)c1ccc(-n2nc(-c3ccc(Cl)cc3)c3c2CCCC3)cc1 [Example 30e]	inhibition at 3 µM [1]: 21%
16 µM	0.97 µM	CS(=O)(=O)c1ccc(-n2nc3ccccc3c2-c2ccc(Cl)cc2)cc1 [Example 32d]	–
> 10 µM	0.32 µM	CS(=O)(=O)c1ccc(-c2c3ccccc3nn2-c2ccc(F)cc2)cc1 [Example 32e]	–
0.64 µM	6.2 µM	Fc1ccc(-n2nc(-c3ccc(Cl)cc3)c3c2-c2c([nH]c4ccc(F)cc24)CC3)cc1 [Example 32f]	–
> 10 µM	> 10 µM	CS(=O)(=O)c1ccc(-n2nc(-c3ccc(C(F)(F)F)cc3)c3c2C=CCC3)cc1 [Example 32g]	–
–	–	CS(=O)(=O)c1ccc(-n2nc(-c3ccc(F)cc3)c3c2C=CCC3)cc1 [Example 32h]	inhibition at 3 µM [1]: 13%
–	–	CS(=O)(=O)c1ccc(-n2nc(-c3ccc(F)cc3)c3ccccc32)cc1 [Example 32i]	inhibition at 3 µM [1]: 12%
–	9.58 µM	CS(=O)(=O)c1ccc(-n2nc3c(c2-c2ccc(Cl)cc2)CCC2OC32)cc1 (stereo not shown) [Example 48d]	–
> 10 µM	6.28 µM	CS(=O)(=O)c1ccc(-n2nc3c(c2-c2ccc(F)cc2)CCC2OC32)cc1 (stereo not shown) [Example 48e]	–
> 10 µM	10 µM	CS(=O)(=O)c1ccc(-n2nc3c(c2-c2ccc(Cl)cc2)CCC(O)C3)cc1 (stereo not shown) [Example 49d]	–
> 10 µM	1.44 µM	CS(=O)(=O)c1ccc(-n2nc3c(c2-c2ccc(Cl)cc2)CCC(=O)C3)cc1 [Example 52b]	–
